# Results taken from patent US20120270928A1, “MICRORNA COMPOUNDS AND METHODS FOR MODULATING MIR-21 ACTIVITY” (REGULUS THERAPEUTICS INC., priority 2011, published 2012).
# Several values for one entry are separate records, joined by “and”; a condition that tells them apart may be missing. Equal values may be shown once.
# How the values were obtained:
# [1] = test system: model of ischemia reperfusion injury (IRI); assay: Unilateral IRI model: collagen area fraction of kidney tissue; format: in vivo, mouse; conditions: for Collagen Area Fraction (#) Mean: group mean; for Collagen Area Fraction (#): 20 mg/kg; for reduction in collagen area fraction (significance): IRI
# Protocol: (§1) A model of ischemia reperfusion injury (IRI) is created in the mouse through unilateral or bilateral clamping of kidney arteries, which leads to tubule damage, inflammation, and fibrosis. Kidney dysfunction can occur either early (<5 days) or late (>7 days) in this model, with the early time points useful to test candidate agents for the treatment of acute kidney injury, and the later time points useful to model chronic fibrosis.
# (§2) Anti-miR-21 compounds were tested in the unilateral IRI model. Unilateral IRI was induced for a period of 30 minutes. Treatment groups were as follows: sham IRI procedure; IRI with PBS administered subcutaneously; IRI with anti-miR-21 compound 25070 administered intraperitoneally at a dose of 20 mg/kg; the 2′-fluoro/2′-MOE modified anti-miR-21 25919 administered intraperitoneally at a dose of 20 mg/kg; and a 2′-fluoro/2′ modified mismatch anti-miR-21 (having three mismatches to the sequence of miR-21) 25319 administered intraperitoneally at a dose of 20 mg/kg. PBS or anti-miR compound was administered on days 5, 6, and 7 following IRI, and animals were sacrificed 14 days after IRI. As anti-miR compound is administered 5 days following the injury to the kidney, or later, when fibrosis has already occurred to some extent, this treatment regimen is considered a therapeutic regimen, rather than a prophylactic regimen.
# (§3) Kidney tissue was collected for analysis of collagen 1A1 and collagen 3A1 expression (shown in Table 0), and collagen area fraction (shown in Table P).
# (§4) A similar study was performed with the same treatment groups and additional days of treatment. In this study, treatments were administered intraperitoneally at days 5, 6, 7, 14, and 21 following the IRI procedure Animals were sacrificed on Day 27, and kidney tissue was collected for analysis of collagen 1A1 and collagen 3A1 expression, as well as collagen area fraction.
# [2] = test system: model of ischemia reperfusion injury (IRI); assay: Unilateral ischemia reperfusion injury (IRI) model: kidney collagen 1A1 and collagen 3A1 expression; format: in vivo, mouse; conditions: for Collagen 3A1 (Normalized Expression) Mean / Collagen 1A1 (Normalized Expression) Mean: group mean; for Collagen 1A1 (Normalized Expression) / Collagen 3A1 (Normalized Expression): individual animals
# Protocol: as §1, §2, §3, §4
# In order to assess the flexibility of administration of the anti-miR-21 compound 25070, the activity of the compound in the 14 day study above, where anti-miR-21 was administered at […] following the IRI procedure, to a different 14 day study where anti-miR-21 was administered intraperitoneally at days 3, 5, and 7 following the IRI procedure.
# [3] = In vivo stability of compound in kidney tissue after administration to mice; conditions: 7 days post-injection
# [4] = Ex vivo liver homogenate stability assay (HPLC-TOF MS); conditions: 5 μM oligonucleotide in liver homogenate (50 mg tissue per ml), 24 hours at 37° C.
# [5] = test system: ischemia reperfusion injury/nephrectomy (IR/Nx) model; assay: Ischemia reperfusion injury/nephrectomy (IR/Nx) model: urinary albumin to creatinine ratio; format: in vivo, mouse
# Description: An ischemia reperfusion injury/nephrectomy (IR/Nx) model is created in the mouse through temporary unilateral clamping of an artery in one kidney, which leads to tubule damage, inflammation, and fibrosis, followed by removal of the second kidney at a later timepoint. In this model, the acute kidney dysfunction phase is useful to test candidate agents for the treatment of acute kidney injury (i.e. up to about the first 5 days), and the later phases of kidney dysfunction are useful to model chronic fibrosis (i.e. after about the first 5 days).
# Unilateral IR was induced for a period of 30 minutes. Treatment groups were as follows: sham IR procedure; IR with PBS administered subcutaneously; IR with mismatched control 25109 administered subcutaneously at a dose of 20 mg/kg; IR with anti-miR-21 compound 25070 administered subcutaneously at a dose of 20 mg/kg; and IR with anti-miR-21 compound 25923 administered subcutaneously at a dose of 20 mg/kg. PBS or anti-miR was administered on days 2, 3, 4, and 8 following IR. On day 8, the healthy kidney was removed by nephrectomy from each animal, and animals were sacrificed on day 9. Just prior to sacrifice, urine was collected by direct bladder puncture.
# Urinary albumin to creatinine ratio was measured in the urine from each mouse. […] The geometric mean of the albumin to creatinine ratio in each group of mice was 16 μgAlb/mgCr (nephrectomy-only control), 127 μgAlb/mgCr (IR/Nx, PBS control), 140 μgAlb/mgCr (IR/Nx, 25109 control), 40 μgAlb/mgCr (IR/Nx, 25070), and 31 μgAlb/mgCr (IR/Nx, 25923). Blood urea nitrogen and serum creatinine levels were similar across all IR/Nx mice, and were elevated relative to nephrectomy-only control mice (data not shown).
# [6] = test system: IR/Nx model mice; assay: Survival rate of IR/Nx model mice two days after nephrectomy; format: in vivo
# Protocol: The survival rate of IR/Nx model mice two days after nephrectomy was determined across six different experiments to determine if administration of anti-miR-21 compounds increases survival. In the first three experiments, anti-miR-21 compound was administered on days 5, 6, and 7 after ischemia reperfusion injury, and nephrectomy occurred on day 10 or day 11. In the second three experiments, anti-miR-21 compound was administered on days 2, 3, and 4, and nephrecromy occurred on day 7.
# [7] = Table P, unilateral IRI, 20 mg/kg intraperitoneally on days 5, 6, 7, day 14, IRI-PBS mean 15.1
# [8] = Table P, individual animals, unilateral IRI, 20 mg/kg intraperitoneally on days 5, 6, 7, day 14
# [9] = unilateral IRI mouse, 20 mg/kg intraperitoneally on days 5, 6, 7, 14, and 21, sacrificed Day 27
# [10] = individual animals (not same as PCR), unilateral IRI mouse, 20 mg/kg intraperitoneally on days 5, 6, 7, 14, and 21, sacrificed Day 27
# [11] = Table O, unilateral IRI, 20 mg/kg intraperitoneally on days 5, 6, 7, day 14, IRI-PBS mean 63.9
# [12] = Table O, unilateral IRI, 20 mg/kg intraperitoneally on days 5, 6, 7, day 14, IRI-PBS mean 85.1
# [13] = Table O, unilateral IRI 30 minutes, 20 mg/kg intraperitoneally on days 5, 6, 7 (therapeutic), sacrifice 14 days after IRI, 20 mg/kg
# [14] = unilateral IRI mouse, 20 mg/kg intraperitoneally on days 5, 6, 7, 14, and 21, kidney, sacrificed Day 27
# [15] = unilateral IRI mouse, 20 mg/kg intraperitoneally on days 5, 6, 7, 14, and 21, kidney, sacrificed Day 27, 20 mg/kg
# [16] = IRI mouse, 14 day study, dosing Day 5, 6, 7, relative to sham
# [17] = IRI mouse, 14 day study, intraperitoneal dosing Day 3, 5, 7, relative to sham
sequence,measurement,setting,value
"UECEAFAFCFAFUFCFAFGFUFCEUEGEAFUFAFAFGFCFUEAE (antisense TCAACATCAGTCTGATAAGCTA; listed as DNA, chemistry not fully specified) [Compound 25919, reference compound]",Collagen Area Fraction (#) Mean,[1]; [7],8.2 #
same,Collagen Area Fraction (#),[1]; [8],7.093 # and 8.254 # and 8.095 # and 8.559 # and 8.681 # and 6.31 # and 8.416 # and 9.905 #
same,Collagen Area Fraction (#) Mean,[1]; [9],12.8
same,Collagen Area Fraction (#),[1]; [10],11.882 and 9.755 and 9.506 and 12.654 and 20.319 and 11.551 and 12.224 and 14.468
same,Collagen 3A1 (Normalized Expression) Mean,[2]; [11],59.9
same,Collagen 1A1 (Normalized Expression) Mean,[2]; [12],72.0
same,Collagen 1A1 (Normalized Expression),[2]; [13],108.7 and 103.9 and 29.5 and 95.8 and 35.5 and 42.2 and 64.1 and 96.4
same,Collagen 3A1 (Normalized Expression),[2]; [13],87.5 and 72.3 and 14.3 and 104.4 and 27.1 and 34.9 and 56.1 and 82.8
same,Collagen 1A1 (Normalized Expression) Mean,[2]; [14],48.3
same,Collagen 3A1 (Normalized Expression) Mean,[2]; [14],34.9
same,Collagen 1A1 (Normalized Expression),[2]; [15],75.5 and 50.4 and 49.2 and 43.2 and 41.7 and 53.6 and 44.8 and 28.0
same,Collagen 3A1 (Normalized Expression),[2]; [15],40.2 and 43.1 and 34.5 and 35.7 and 41.1 and 36.9 and 24.5 and 22.9
"AECSATCSAGTCSTGAUSAAGCSTAE (ACATCAGTCTGATAAGCTA; modified nucleosides, phosphorothioate linkages, chemistry not fully specified) [Compound 25070]",compound present in kidney tissue lacking the 3′-terminal nucleoside,[3],about 50%
same,reduction in collagen area fraction (significance),"[1]; 20 mg/kg intraperitoneally on days 5, 6, and 7, sacrifice 14 days after IRI",statistically significant reduction
same,reduction in collagen area fraction (significance),"[1]; intraperitoneally at days 5, 6, 7, 14, and 21, sacrifice Day 27",statistically significant reduction
same,Collagen Area Fraction (#) Mean,[1]; [7],9.7 #
same,Collagen Area Fraction (#),[1]; [8],10.266 # and 11.772 # and 10.267 # and 8.404 # and 7.862 # and 6.975 # and 8.381 # and 13.773 #
same,Collagen Area Fraction (#) Mean,[1]; [9],10.1
same,Collagen Area Fraction (#),[1]; [10],7.354 and 9.241 and 9.589 and 11.573 and 8.182 and 10.695 and 13.978 and 10.12
same,compound lacking the 3′-terminal nucleoside,[4],about 27%
same,compound present as the full-length compound,[4],about 58%
same,reduction in urinary albumin to creatinine ratio (significance),"[5]; 20 mg/kg subcutaneously on days 2, 3, 4, and 8",statistically significant reductions
same,geometric mean of the urinary albumin to creatinine ratio,"[5]; 20 mg/kg subcutaneously on days 2, 3, 4, and 8, urine on day 9",40 μgAlb/mgCr
same,"reduction of collagen expression (collagen 1A1 or collagen 3A1, significance)","[2]; IRI, 14 day studies, either dosing schedule (days 5, 6, 7 or days 3, 5, 7)",statistically significant reduction of collagen expression with either dosing schedule
same,Collagen 3A1 (Normalized Expression) Mean,[2]; [11],34.2
same,Collagen 1A1 (Normalized Expression) Mean,[2]; [12],50.2
same,Collagen 1A1 (Normalized Expression),[2]; [13],81.7 and 57.4 and 37.9 and 55.3 and 22.3 and 52.4 and 53.0 and 41.5
same,Collagen 3A1 (Normalized Expression),[2]; [13],57.8 and 18.1 and 39.3 and 36.0 and 20.6 and 38.6 and 33.4 and 29.7
same,Collagen 1A1 (Normalized Expression) Mean,[2]; [16],24.5
same,Collagen 3A1 (Normalized Expression) Mean,[2]; [16],26.2
same,Collagen 1A1 (Normalized Expression) Mean,[2]; [17],27.2
same,Collagen 3A1 (Normalized Expression) Mean,[2]; [17],27.9
same,Collagen 1A1 (Normalized Expression) Mean,[2]; [14],31.4
same,Collagen 3A1 (Normalized Expression) Mean,[2]; [14],20.8
same,Collagen 1A1 (Normalized Expression),[2]; [16],21.7 and 22.8 and 15.8 and 27.6 and 27.1 and 29.3 and 10.8 and 21.5 and 29.9 and 35.0 and 28.3 and 24.2
same,Collagen 3A1 (Normalized Expression),[2]; [16],24.9 and 26.3 and 13.6 and 25.4 and 32.7 and 29.9 and 9.7 and 22.2 and 33.2 and 35.4 and 32.3 and 28.9
same,Collagen 1A1 (Normalized Expression),[2]; [17],37.5 and 21.9 and 35.3 and 26.0 and 24.9 and 16.8 and 30.8 and 34.3 and 36.8 and 9.4 and 28.0 and 24.6
same,Collagen 3A1 (Normalized Expression),[2]; [17],35.3 and 23.6 and 32.1 and 25.1 and 31.3 and 18.6 and 30.3 and 37.6 and 40.0 and 9.5 and 23.2 and 28.7
same,Collagen 1A1 (Normalized Expression),[2]; [15],26.4 and 37.4 and 41.9 and 36.8 and 14.1 and 27.7 and 29.4 and 37.6
same,Collagen 3A1 (Normalized Expression),[2]; [15],16.4 and 27.0 and 28.5 and 19.6 and 11.3 and 19.3 and 21.4 and 23.1
same,"Survival rate 2 days after Nx, Summary (day 10/11 Nx)","[6]; Studies 1-3 pooled, Nx day 10/11, dosing days 5, 6, and 7",80% (29/36)
same,"Survival rate 2 days after Nx, Summary (day 7 Nx)","[6]; Studies 4-6 pooled, Nx day 7, dosing days 2, 3, and 4",69% (25/36)
same,Survival rate 2 days after Nx,"[6]; Study 1, Nx Day 10, 30 mg/kg on days 5, 6, and 7 after IR",91.7%
same,Survival rate 2 days after Nx,"[6]; Study 2, Nx Day 11, 30 mg/kg on days 5, 6, and 7 after IR",83.3%
same,Survival rate 2 days after Nx,"[6]; Study 3, Nx Day 10, 20 mg/kg on days 5, 6, and 7 after IR",66.6%
same,Survival rate 2 days after Nx,"[6]; Study 4, Nx Day 7, 20 mg/kg on days 2, 3, and 4 after IR",75%
same,Survival rate 2 days after Nx,"[6]; Study 5, Nx Day 7, 20 mg/kg on days 2, 3, and 4 after IR",66.7%
same,Survival rate 2 days after Nx,"[6]; Study 6, Nx Day 7, 20 mg/kg on days 2, 3, and 4 after IR",66.7%
same,survival rate two days after nephrectomy,"[6]; first three experiments, dosing days 5, 6, 7, nephrectomy on day 10 or day 11",80%
same,survival rate two days after nephrectomy,"[6]; second three experiments, dosing days 2, 3, 4, nephrectomy on day 7",69%
